The values that follow are results of earlier work, collected in US6344215B1, “Methylphenidate modified release formulations” (Eurand America, Inc., priority 2000, dated 2002).

Structures can show the parent of a compound that is named as a salt.

The conditions of the data set: gastrointestinal tract.

Take `COC(=O)C(c1ccccc1)C1CCCCN1` (stereo not shown) [Methylphenidate Hydrochloride]: the absorption entry was “well absorbed throughout the gastrointestinal tract”.
